Experimental data published in patent US5684127A, “Tetrapeptides deriving from dalbaheptide antibiotics” (Gruppo Lepetit SpA, priority 1995, dated 1997).
Converted amounts (≈) assume the structure as drawn.

How the values were obtained:
Assay in all cases: in vitro antibacterial activity, MIC in microtiter
S. aurens Smith (L 819) = format: cell-based; details: Iso-Sensitest broth, 0.01% bovine serum albumin, 37° C. 18-24 hours
Method: The in vitro antibacterial activity of the compounds is determined by means of standard […] tests in microtiter. Iso-Sensitest broth (Oxoid) is used for all bacteria except streptococci (Todd-[…] broth, Difco) and enterococci (Mueller-Hinton, Difco). Broth cultures are diluted so that the final inoculum is about 5×10^5 cfu/ml (colony forming units per ml).

[1] = tested on: Enterococcus faecalis ATCC 7,080 (L 149); format: cell-based; details: Mueller-Hinton, 0.01% bovine serum albumin, 37° C. 18-24 hours
Method: (§1) The in vitro antibacterial activity of the compounds is determined by means of standard […] tests in microtiter. Iso-Sensitest broth (Oxoid) is used for all bacteria except streptococci (Todd-Wewitt broth, Difco) and enterococci (Mueller-Hinton, Difco). Broth cultures are diluted so that the final inoculum is about 5×10^5 cfu/ml (colony forming units per ml). All broth microdilution MICs are performed in the presence of 0.01% bovine serum albumin (Pentax fraction V, Sigma).

[2] = tested on: S. epidermidis clin. isol. (L 533); format: cell-based; details: Iso-Sensitest broth, 0.01% bovine serum albumin, 37° C. 18-24 hours
Method: as §1

[3] = tested on: Strep. pneumoniae UC41 (L 44); format: cell-based; details: Todd-Wewitt broth, 0.01% bovine serum albumin, 37° C. 18-24 hours
Method: as §1

[4] = tested on: Strep. pyogenes C203 (L 49); format: cell-based; details: Todd-Wewitt broth, 0.01% bovine serum albumin, 37° C. 18-24 hours
Method: as §1

[5] = tested on: Staph. aureus Tour (L 165); format: cell-based; details: Iso-Sensitest broth, 0.01% bovine serum albumin, 37° C. 18-24 hours
Method: as §1

[6] = tested on: S. aureus clin. isol. (L 561); format: cell-based; details: Iso-Sensitest broth, 0.01% bovine serum albumin, 37° C. 18-24 hours
Method: as §1

[7] = tested on: S. epidermidis ATCC 12,228 (L 147); format: cell-based; details: Iso-Sensitest broth, 0.01% bovine serum albumin, 37° C. 18-24 hours
Method: as §1

[8] = tested on: S. haemolyticus clin, isol. (L 602); format: cell-based; details: Iso-Sensitest broth, 0.01% bovine serum albumin, 37° C. 18-24 hours
Method: as §1

[9] = tested on: E. faecalis clin. isol. (L 502); format: cell-based, Enterococcus faecalis; details: Mueller-Hinton, 0.01% bovine serum albumin, 37° C. 18-24 hours
Method: as §1

| Compound | MIC (S. aurens Smith (L 819)) | MIC [1] | MIC [2] | MIC [3] | MIC [4] | MIC [5] | MIC [6] | MIC [7] | MIC [8] | MIC [9] |
| --- | --- | --- | --- | --- | --- | --- | --- | --- | --- | --- |
| N[C@H]1C(=O)N[C@@H]2Cc3ccc(c(Cl)c3)Oc3cc4cc(c3O)Oc3ccc(cc3Cl)[C@@H](O)[C@@H]3NC(=O)[C@H](NC(=O)[C@@H]4NC(=O)[C@@H](NC2=O)c2cc(O)cc(c2)Oc2cc1ccc2O)c1ccc(O)c(c1)-c1c(O)cc(O)cc1[C@@H](C(=O)O)NC3=O [teicoplanin aglycon] | 0.06 µg/mL (≈ 0.05 µM) | 0.13 µg/mL (≈ 0.108 µM) | 0.016 µg/mL (≈ 0.0133 µM) | 0.13 µg/mL (≈ 0.108 µM) | 0.13 µg/mL (≈ 0.108 µM) | 0.13 µg/mL (≈ 0.108 µM) | 0.13 µg/mL (≈ 0.108 µM) | 0.06 µg/mL (≈ 0.05 µM) | 0.25 µg/mL (≈ 0.209 µM) |  |
| teicoplanin | 0.25 µg/mL | 0.13 µg/mL | 8 µg/mL | 0.13 µg/mL | 0.13 µg/mL | 0.13 µg/mL | 8 µg/mL | 8 µg/mL | 32 µg/mL |  |
| (L-phenylalanyl)^3 -(D-lysyl)^15 -aglucoteicoplanin dalbaheptide methyl ester | 0.13 µg/mL | 0.5 µg/mL | 0.13 µg/mL | 0.13 µg/mL | 0.25 µg/mL | 0.13 µg/mL | 0.06 µg/mL | 0.13 µg/mL | 0.5 µg/mL | 16 µg/mL |
